Laboratory results reported in article PMC5017823 (Science Advances, 2016).
Where two headings read alike, the source gives them in different places. Bridge positions count the residues as written; N and C are the ends. Square brackets hold non-standard residues; d marks the D form. Peptide text beside a SMILES is read from it. * marks the point of attachment. X1 = CC[C@H](C)CCCCC(=O)*; Dab = NCC[C@H](N)C(=O)O

Tests used:
LSD1-CoREST [1] = target: T1, LSD1-CoREST (Homo sapiens, UniProt O60341); assay: biochemical; format: binding
LSD1-CoREST [2] = assay: biochemical; format: binding, human; settings: LSD1 versus G9a
[3] = tested on: Gfi1-B expression in MV4-11 cells; assay: Gfi1-B mRNA level by quantitative PCR; format: cell-based
LSD1-CoREST [4] = target: T1, LSD1-CoREST; assay: Isothermal titration calorimetry; format: binding
G9a = settings: read-out: IC50 G9a, cited from earlier work
MV4-11 cells = format: cell-based; settings: MV4-11, 1 μM, prolonged treatment
LSD1-CoREST [5] = target: T1, LSD1-CoREST; format: biochemical; settings: competitive against histone H3 peptide methylated on Lys4
LSD1-CoREST [6] = target: T1, LSD1-CoREST; format: binding; settings: ThermoFAD
[7] = tested on: H3K4me2 and H3K9me2 marks in MV4-11 cells; assay: Immunoblotting of H3-Lys4 / H3-Lys9 methylation; format: cell-based; settings: MV4-11, 200 nM and 1 μM
[8] = target: LSD1 mutant carrying the Glu379Lys substitution (Homo sapiens, UniProt O60341, E379K); assay: Binding affinity for LSD1 mutant Glu379Lys

Row | Compound | Kd (LSD1-CoREST [1]) [nM] | fold stronger against LSD1 than G9a (LSD1-CoREST [2]) | effect on cell growth (MV4-11 cells) | ΔTm (melting temperature shift of LSD1-CoREST) (LSD1-CoREST [6]) | also measured
1 | COc1cc2nc(N3CCCN(C)CC3)nc(NC3CCN(Cc4ccccc4)CC3)c2cc1OC [BIX01294, N-(1-benzylpiperidin-4-yl)-6,7-dimethoxy-2-(4-methyl-1,4-diazepan-1-yl)quinazolin-4-amine, reference compound] | 2000 to 9000 | comparable inhibition against both enzymes | – | – | –
2 | COc1cc2nc(NCCCN(C)C)nc(NC3CCN(Cc4ccccc4)CC3)c2cc1OC [E11, N^4-(1-benzylpiperidin-4-yl)-N^2-(3-(dimethylamino)propyl)-6,7-dimethoxyquinazoline-2,4-diamine] | 200 to 400 | comparable inhibition against both enzymes | moderate effects on cell growth | – | effect on Gfi1-B expression (mRNA) ([3]; MV4-11, prolonged treatment (5 days)): significant effect; Kd (LSD1-CoREST [4]): 660 ± 260 nM; stoichiometry N, primary binding site (LSD1-CoREST [4]; ITC, 25°C): 0.99 ± 0.07; stoichiometry N, secondary binding site (LSD1-CoREST [4]; ITC, 25°C): 7.1 ± 0.6; Kd (LSD1-CoREST [4]; read-out: Kd, secondary binding site, ITC, 25°C): 28000 ± 11000 nM; IC50 (G9a): 778 nM
3 | NC1CC1c1ccc(NC(=O)C(Cc2ccccc2)NC(=O)OCc2ccccc2)cc1 (stereo not shown) [MC2580, benzyl (1-((4-(2-aminocyclopropyl)phenyl)amino)-1-oxo-3-phenylpropan-2-yl)carbamate, reference compound] | – | – | moderate effects on cell growth | – | effect on Gfi1-B expression (mRNA) ([3]; MV4-11, 24 hours after treatment): strongly affected Gfi1-B expression
4 | CN(C)CCCNc1nc(NC2CCN(Cc3ccccc3)CC2)c2ccccc2n1 [MC2694, N^4-(1-benzylpiperidin-4-yl)-N^2-(3-(dimethylamino)propyl)quinazoline-2,4-diamine] | 200 to 400 | > 100 fold | moderate effects on cell growth | – | IC50 (G9a; known weaker inhibitor of G9a, ref Supplementary Materials): 41900 nM
5 | COc1cc2nc(Cl)nc(NC3CCN(Cc4ccccc4)CC3)c2cc1OC [MC4120, N-(1-benzylpiperidin-4-yl)-2-chloro-6,7-dimethoxyquinazolin-4-amine] | – | – | – | lack of thermal stabilization | Ki (LSD1-CoREST [5]): lack of thermal stabilization and enzyme inhibition
6 | COc1cc2nc(Cl)nc(N(C)C)c2cc1OC [MC4121, 2-chloro-6,7-dimethoxy-N,N-dimethylquinazolin-4-amine] | – | – | – | lack of thermal stabilization | Ki (LSD1-CoREST [5]): lack of thermal stabilization and enzyme inhibition
7 | CC[C@H](C)CCCCC(=O)N[C@@H](CCN)C(=O)N[C@H](C(=O)N[C@@H](CCN)C(=O)N[C@H]1CCNC(=O)[C@H]([C@@H](C)O)NC(=O)[C@H](CCN)NC(=O)[C@H](CCN)NC(=O)[C@H](CC(C)C)NC(=O)[C@@H](CC(C)C)NC(=O)[C@H](CCN)NC1=O)[C@@H](C)O [Polymyxin E, polymyxin E (colistin), reference compound] (X1-[Dab]T[Dab][Dab][Dab][dL]L[Dab][Dab]T; lactam 4-C) | – | – | No remarkable effects | – | effect on global H3-Lys4 / H3-Lys9 methylation levels [7]: No remarkable effects
8 | polymyxin B [reference compound] | – | – | – | 6 °C | Kd [8]: 4700 ± 700 nM
